Data reported in PubChem BioAssay AID1259407 (Chemical Carcinogenesis Research Information System (CCRIS), 2018).
Activity calls are given as the source filed them. How the calls were made is not given here.

System: CCRIS mutagenicity, Ames/micronucleus/aberration tests
Assay: CCRIS mutagenicity studies
[1] = Test System: AMES SALMONELLA TYPHIMURIUM, Strain/Indicator: TA98, Metabolic Activation: NONE, Method: STANDARD PLATE
[2] = Test System: AMES SALMONELLA TYPHIMURIUM, Strain/Indicator: TA100, Metabolic Activation: NONE, Method: STANDARD PLATE

For `OCCNCCO`, the mutagenic call (End Point: IN VITRO CHROMOSOMAL ABERRATIONS, Test System: CHO CELLS, Metabolic Activation: NONE) was “inactive; negative”, the mutagenic call (End Point: IN VITRO CHROMOSOMAL ABERRATIONS, Test System: CHO CELLS, Metabolic Activation: RAT, LIVER, S-9, AROCLOR 1254) was “inactive; negative; weak response at highest dose” and the mutagenic call (Test System: AMES SALMONELLA TYPHIMURIUM, Strain/Indicator: TA98, Metabolic Activation: HAMSTER, LIVER, S-9, AROCLOR 1254, Method: PREINCUBATION) was “inactive; negative”. The mutagenic call (Test System: AMES SALMONELLA TYPHIMURIUM, Strain/Indicator: TA98, Metabolic Activation: NONE, Method: PREINCUBATION) was “inactive; negative”, the mutagenic call (Test System: AMES SALMONELLA TYPHIMURIUM, Strain/Indicator: TA98, Metabolic Activation: RAT, LIVER, S-9, AROCLOR 1254, Method: PREINCUBATION) was “inactive; negative” and the mutagenic call (Test System: AMES SALMONELLA TYPHIMURIUM, Strain/Indicator: TA100, Metabolic Activation: HAMSTER, LIVER, S-9, AROCLOR 1254, Method: PREINCUBATION) was “inactive; negative”. The mutagenic call (Test System: AMES SALMONELLA TYPHIMURIUM, Strain/Indicator: TA100, Metabolic Activation: NONE, Method: PREINCUBATION) was “inactive; negative”, the mutagenic call (Test System: AMES SALMONELLA TYPHIMURIUM, Strain/Indicator: TA100, Metabolic Activation: RAT, LIVER, S-9, AROCLOR 1254, Method: PREINCUBATION) was “inactive; negative” and the mutagenic call (Test System: AMES SALMONELLA TYPHIMURIUM, Strain/Indicator: TA1535, Metabolic Activation: HAMSTER, LIVER, S-9, AROCLOR 1254, Method: PREINCUBATION) was “inactive; negative”. The mutagenic call (Test System: AMES SALMONELLA TYPHIMURIUM, Strain/Indicator: TA1535, Metabolic Activation: NONE, Method: PREINCUBATION) was “inactive; negative”, the mutagenic call (Test System: AMES SALMONELLA TYPHIMURIUM, Strain/Indicator: TA1535, Metabolic Activation: RAT, LIVER, S-9, AROCLOR 1254, Method: PREINCUBATION) was “inactive; negative” and the mutagenic call (Test System: AMES SALMONELLA TYPHIMURIUM, Strain/Indicator: TA1537, Metabolic Activation: HAMSTER, LIVER, S-9, AROCLOR 1254, Method: PREINCUBATION) was “inactive; negative”. The mutagenic call (Test System: AMES SALMONELLA TYPHIMURIUM, Strain/Indicator: TA1537, Metabolic Activation: NONE, Method: PREINCUBATION) was “inactive; negative” and the mutagenic call (Test System: AMES SALMONELLA TYPHIMURIUM, Strain/Indicator: TA1537, Metabolic Activation: RAT, LIVER, S-9, AROCLOR 1254, Method: PREINCUBATION) was “inactive; negative”.
`CCCOc1cc(N=Nc2ccccc2)ccc1N=Nc1c(S(=O)(=O)O)cc2ccc(N)cc2c1O` was tested, and the mutagenic call [1] was “inactive; negative”, the mutagenic call (Test System: AMES SALMONELLA TYPHIMURIUM, Strain/Indicator: TA98, Metabolic Activation: RAT, LIVER, S-9, AROCLOR 1254, Method: STANDARD PLATE) was “active; positive” and the mutagenic call [2] was “inactive; negative”. The mutagenic call (Test System: AMES SALMONELLA TYPHIMURIUM, Strain/Indicator: TA100, Metabolic Activation: RAT, LIVER, S-9, AROCLOR 1254, Method: STANDARD PLATE) was “inactive; negative”, the mutagenic call (Test System: AMES SALMONELLA TYPHIMURIUM, Strain/Indicator: TA1538, Metabolic Activation: NONE, Method: STANDARD PLATE) was “inactive; negative” and the mutagenic call (Test System: AMES SALMONELLA TYPHIMURIUM, Strain/Indicator: TA1538, Metabolic Activation: RAT, LIVER, S-9, AROCLOR 1254, Method: STANDARD PLATE) was “active; positive”.
With `ONc1ccccc1-c1ccccc1` the mutagenic call [1] was “inactive; negative” and the mutagenic call [2] was “active; positive”.
